Values quoted from earlier work in article PMC11672368 (Therapeutic Advances in Medical Oncology, 2024).
Values belong to the substance of their own block, whether it stands above or below them.

Tests used:
[1] = depot injection

elimination half-life (t1/2): 5 h
Substance: Triptorelin

Substance: degarelix
incidence of injection-site reactions [1]: ~40%

Substance: leuprolide acetate
achievement rate of serum total testosterone 0.2 ng/mL (serum testosterone): 57%
